What was measured:
[1] = system: left atrium of rats' hearts; test: Functional refractory period prolongation on isolated left atria of rats' hearts in vitro; design: species or system rat (Sprague-Dawley); details: 10 μM
Description: 3. Investigation of the Functional Effectiveness of the Substances on the Atrium of Rats' Hearts in Vitro
In this test model it is determined to what extent the Kv 1.5-blocking substances of Formula I result in a prolongation of the functional refractory period in the left atrium of rats. The refractory period is the minimum possible elapsed time between the basic stimulus and additional stimulus in which a renewed contraction can be triggered. The extent of the prolongation of the functional refractory period is a measurement of the antiarrhythmic effectiveness of the substances according to the invention. The functional refractory period is determined by testing on the electrically stimulated preparation at what elapsed time from the preceding contraction a renewed contraction can be triggered by additional electrical stimuli.
The hearts were removed from freshly sacrificed rats (Sprague-Dawley, Charles-River, Germany). The left atria were isolated and fastened to force transducers in a temperature-controlled (30° C.), gasified (O2 95%, CO2 5%) organ bath which was filled with modified Tyrode solution (all values in mM: NaCl 137; KCl 2.7; CaCl2 1.8; MgCl2 0.8; NaHCO3 11.9; NaH2PO4 0.6; glucose 5). In order to trigger regular contractions, the preparations were electrically stimulated (rectangular pulses, pulse magnitude 3.5× threshold stimulus, pulse width 1.5 ms, frequency 1 Hz). Initially, the initial value of the functional refractory period was determined by applying extra pulses in addition to the basic stimulus, the elapsed time from the preceding basic stimulus being shortened until no further additional contraction could be triggered. Then the cumulative addition of increasing concentrations (0.1-10 μM) of the substances of Formula I took place at intervals of 20 min. each, the refractory period being determined again in each case 18 min. after the addition had taken place. Before the measurement, stock solutions of the test substances (3.2 and 0.32 mM in 100% DMSO) were prepared. In order to achieve the desired final concentrations of the substances (0.1-10 μM) in the organ bath (volume 100 ml), corresponding volumes of these stock solutions were then poured into the organ bath.
In each case the prolongation of the functional refractory period (FRP) in the left atrium of the rats' hearts in milliseconds observed after the addition of 10 μM of the respective substance of Formula I to the atrial preparations was given as characteristic variable.

ventricle of guinea pigs = test: Functional effectiveness on guinea-pig hearts in vivo (ERP, QT, QRS, systolic blood pressure); design: species or system guinea pig (Dunkin-Hartley); details: 1 min. after 10 μmole/kg i.v.; for QRS / QT / syst. blood pressure (change): guinea pigs; for syst. blood pressure (change): minus effects due to the vehicle, negative values indicate reduction; for ERP: ventricle of guinea pigs, negative values indicate shortening
From the text: 4. Investigation of the Functional Effectiveness of the Substances on Guinea-Pig Hearts in Vivo
In the test model shown below, it was shown that the substances according to the invention at most have slight undesirable proarrhythmic effects on repolarization in the ventricle. To this end, the influence of the compounds of Formula I on the effective refractory period (ERP) and other influencing variables on guinea-pig hearts in vivo were investigated. In this test model, non-selective potassium channel blockers not in accordance with the invention, which also block HERG and/or KvLQT1 channels, result in undesirable prolongation of the ERP and the QT time on an electrocardiogram (═ECG). The QT time is likewise a measurement of the repolarization in the heart. Prolongations of both the ERP and the QT time, respectively, which are due to the substances were independently interpreted as indications of the risk of the occurrence of undesirable torsade-de-pointes arrhythmias. Furthermore, the QRS interval also was determined in each case from the ECG as a measurement of the ventricular rate of spread of stimulus. Even a prolongation of the QRS interval caused by a test substance is connected with an increased risk of undesirable pro-arrhythmic side-effects. Therefore in this test model the lack of an ERP and QT time prolongation signifies a low risk, but the occurrence of a relevant ERP and QT prolongation on the other hand signifies an elevated risk of undesirable pro-arrhythmic effects. Also the lack of a prolongation of the QRS interval which is due to the substances due to the substances of Formula I investigated indicates a low risk of undesirable pro-arrhythmic side-effects, since lack of QRS prolongation indicates an undisturbed spread of stimulus in the ventricle. Conversely, a QRS prolongation, which is typically triggered by Class I antiarrhythmic drugs indicates slowing of the conduction rate and may promote the occurrence of ventricular tachycardias to ventricular fibrillation.
Male guinea pigs (Dunkin-Hartley from Charles River) were anaesthetized (ketamine 50 mg/kg, xylazine 10 mg/kg) and each of them was provided with a venous access via one jugular vein for administration of compounds of Formula I or a vehicle. A bipolar stimulation catheter was fed into the right ventricle of the guinea pigs via the other jugular vein (stimulation frequency 5 Hz). The arterial blood pressure was measured by a catheter located in the carotid artery which was connected to a Statham pressure transducer. The ECG was recorded via needle electrodes. The measured data were digitized via an analog/digital converter, recorded on a computer with suitable software (Ponemah Physiology Platform from Gould, USA) and printed out in parallel on a multichannel printer. After an equilibration period of 45 min., increasing doses of the compounds of Formula I or of the vehicle were administered intravenously (=i.v.) to the guinea pigs at 12-minute intervals. Before the first administration and in each case one minute after administration of increasing doses (0.1−max. 30 μmole/kg) of the substances of Formula I, the effective refractory period was measured. For this, after five normal stimuli in each case an additional pulse was applied and the elapsed time thereof from the preceding pulse was increased until a heart action was triggered. The observed time interval corresponds to the ERP of the ventricular myocardium.
In order to detect possible effects of the test substances on the blood pressure, in the same test model after each administration of substance the systolic and diastolic blood pressure was determined and compared with the previous blood-pressure level. The parameters were recorded automatically 1 and 8 min. after each administration of substance.
Only statistically significant effects were listed, with a t-test with a significance limit of P<0.05 being used for the statistical testing.

[2] = system: hearts of anaesthetised cats; test: Atrial and ventricular fibrillation threshold in anaesthetised cats in vivo; design: species or system cat; details: anaesthetized cats, dose 30 μmol/kg i.v.
From the text: 5. Investigation of the Functional Effectiveness of the Substances on the Hearts of Anaesthetised Cats in Vivo
In the test model shown below, it was shown that the substances according to the invention at most have a marked atrial-selective effect on the heart. After administration of the substances according to the invention, a significant increase in the atrial fibrillation threshold—i.e. the current intensity at which atrial fibrillation occurs—was observed. At the same time, on the other hand, the ventricular fibrillation threshold is influenced only minimally.
Living cats were anaesthetised with chloralose/urethane (50/300 mg/kg i.v.) and were ventilated with ambient air. Then, following thoracotomy, stimulating electrodes were attached to the right atrium and the ventricle. The atrial and ventricular fibrillation threshold was determined in known manner by administration of rectangular pulses of increasing current intensity until atrial or ventricular fibrillation occurred (for performance see in detail: Br. J. Pharmac. 17 (1961) 167; Hdb. exp. Pharmacol. XVI/3 (1975) 131; Pharmacol. Res. 25 Suppl. 2 (1992) 156). The test substances of Formula I were dissolved in propylene glycol (80%) and administered intravenously in increasing doses (5-30 μmol/kg). Atrial and ventricular fibrillation thresholds were then determined at 5-minute intervals in known manner after the addition of the respective dose. The increase in the respective fibrillation threshold due to the substances investigated was expressed in percent of the value before administration of substance, i.e. a doubling of the fibrillation threshold corresponds to an increase of 100%.

Kv 1.3-potassium channel = molecular target: T1, Kv 1.3-potassium channel (Homo sapiens, UniProt P22001); test: In-vitro Kv 1.3-potassium channel-blocking effect (membrane potential-sensitive fluorescent dye in transfected CHO cells); format: cell-based; details: 10 μM test substance; CHO cells transfected with Kv 1.3; relative to reference margatoxin
T1 construct: expressed in transfected cells; host or cells: CHO cells, stably transfected with the Kv 1.3 plasmid using DMRIE-C
T1 sequence (P22001 whole entry): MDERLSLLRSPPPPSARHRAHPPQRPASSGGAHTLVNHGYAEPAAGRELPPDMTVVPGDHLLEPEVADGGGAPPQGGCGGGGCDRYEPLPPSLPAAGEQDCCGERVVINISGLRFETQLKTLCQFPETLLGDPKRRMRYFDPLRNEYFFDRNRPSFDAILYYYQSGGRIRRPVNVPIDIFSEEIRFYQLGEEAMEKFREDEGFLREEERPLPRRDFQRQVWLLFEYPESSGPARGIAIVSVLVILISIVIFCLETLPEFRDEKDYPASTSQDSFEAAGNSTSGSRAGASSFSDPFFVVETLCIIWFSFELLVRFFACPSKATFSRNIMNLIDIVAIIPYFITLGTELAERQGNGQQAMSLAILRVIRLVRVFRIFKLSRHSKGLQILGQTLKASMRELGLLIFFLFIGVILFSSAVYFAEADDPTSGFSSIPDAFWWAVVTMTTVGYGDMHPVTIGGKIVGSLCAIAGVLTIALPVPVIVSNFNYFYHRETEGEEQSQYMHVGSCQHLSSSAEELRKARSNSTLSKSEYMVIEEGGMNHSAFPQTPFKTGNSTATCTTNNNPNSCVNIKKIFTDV
From the text: 2. In-Vitro Investigation of the Kv 1.3-Potassium Channel-Blocking Effect of the Substances
In this test model, known oocytes of the Chinese hamster (═CHO) are used which are stably transfected with the Kv 1.3-potassium channel. The blockade of the cell-inherent Kv 1.3-potassium channel activity in the transfected cells is accompanied by a positive shift in the membrane potential from approx. −40 mV to −30 mV, whereas in the wild-type CHO cells investigated in parallel no significant shift in the membrane potential is triggered. A change in the membrane potential is thus connected to the reduction in the Kv 1.3-potassium channel activity. By blocking the Kv 1.3-potassium channels e.g. with substances of Formula I and the resulting change in the membrane potential, an accumulation of a membrane potential-sensitive fluorescent dye in intracellular compartments of the oocytes and ultimately increasing fluorescence occurs. The change in the membrane potential of the oocytes is therefore measured indirectly via the increase in fluorescence of the membrane potential-senstive dyes.
The cells were transfected with the Kv 1.3 plasmid in known manner with a commercially obtainable transfection reagent (DMRIE-C from Gibco BRL, Germany). The successful transfection was verified by immunofluorescence and by “patch-clamp” investigations of the potassium ion current. The fluorescence measurements were performed on a Tecan Safire fluorescence reader from Tecan, Germany. In each case, the increase in the fluorescent intensity caused by the blockade of the Kv 1.3-potassium channels in the oocytes with substances of Formula I in a concentration of 10 μM was determined as characteristic variable. The increase in the fluorescent intensity was given in each case in percent (%) compared with an increase in the fluorescent intensity caused by the reference substance margatoxin. Margatoxin is known as a selective Kv 1.3-potassium channel blocker (see e.g. M. Garcia-Calvo et al., J. Biol. Chem. 268 (1993) 18866-18874).

[3] = percent of value before administration

Row | SMILES | FRP prolongation [1] [ms] | QRS (ventricle of guinea pigs) | QT (ventricle of guinea pigs) | syst. blood pressure (change) (ventricle of guinea pigs) | ERP (ventricle of guinea pigs) | Selectivity factor (AFT:VFT) [2] | AFT (increase in the atrial fibrillation threshold) [2, 3] [%] | VFT (increase in the ventricular fibrillation threshold) [2, 3] [%] | Increase in the fluorescent intensity (% margatoxin) (Kv 1.3-potassium channel)
1 | CCc1ccc(S(=O)(=O)NC2c3cc(CC(=O)NC4CCCc5ccccc54)ccc3OC(C)(C)C2O)cc1 (centres unmarked) [Example 1, 2-(4-{[(4-Ethylphenyl)sulfonyl]amino}-3-hydroxy-2,2-dimethyl-3,4-dihydro-2H-chromen-6-yl)-N-1,2,3,4-tetrahydronaphth-1-yl acetamide] | 15 | n.s. | n.s. | n.s. | n.s. | 3 | 66 | 22 | 
2 | CCc1ccc(S(=O)(=O)N[C@@H]2c3cc(CC(=O)NCc4ccccc4)ccc3OC(C)(C)[C@H]2O)cc1 [Example 11] | 24 | n.s. | n.s. | n.s. | n.s. |  |  |  | 99
